Assay results as given in patent US20230339970A1, “CASEIN KINASE 1 DELTA MODULATORS” (priority 2020, published 2023).

Columns and labels:
[1] = biological target: T1, human recombinant GST cleaved CSNK1D (Homo sapiens, UniProt P48730); assay: Purified Enzyme Assay (ADP-Glo CSNK1D Kinase Assay); format: biochemical; details: 2 nM CSNK1D; peptide substrate 150 μM; ATP 20 μM; 45 minutes at room temperature
T1 construct: GST (cleaved yes); purchased University of Dundee clone DU 19064
How it was run: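 GST-cleaved human recombinant CSNK1D phosphorylates peptide PLSRTL-pS-VASLPGL with ATP; compounds added in dose-response, 45 min at room temperature. ADP formed measured by ADP-Glo luminescence and converted to percent activity.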

human CSNK1D = biological target: T2, human CSNK1D (Homo sapiens, UniProt P48730); assay: Whole Cell nBRET CSNK1D Binding Assay; details: living CHO cells stably expressing human CSNK1D tagged with nanoluciferase; NanoBret tracer 130 nM; 2 hours at 37 C
T2 construct: expressed in transfected cells
T2 sequence (P48730 whole entry): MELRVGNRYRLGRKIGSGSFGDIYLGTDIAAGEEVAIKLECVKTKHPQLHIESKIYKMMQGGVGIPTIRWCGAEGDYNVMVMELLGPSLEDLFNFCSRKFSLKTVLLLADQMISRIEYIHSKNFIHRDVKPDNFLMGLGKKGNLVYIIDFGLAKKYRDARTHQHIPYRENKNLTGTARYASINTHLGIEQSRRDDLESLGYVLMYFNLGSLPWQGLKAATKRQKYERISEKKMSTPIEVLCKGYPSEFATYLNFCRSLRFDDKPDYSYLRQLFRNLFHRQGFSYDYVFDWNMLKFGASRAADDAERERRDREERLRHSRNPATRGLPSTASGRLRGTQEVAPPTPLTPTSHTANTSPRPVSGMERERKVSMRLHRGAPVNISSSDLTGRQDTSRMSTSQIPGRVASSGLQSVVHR

T1 sequence (P48730 whole entry): as above

Compound	IC50 [1]	IC50 (human CSNK1D)
Cc1cc(-c2c(-c3ccc(F)cc3)nn3c2CCC3)c2cn[nH]c2n1 [Example 5, 4-(2-(4-Fluorophenyl)-5,6-dihydro-4H-pyrrolo[1,2-b]pyrazol-3-yl)-6-methyl-1H-pyrazolo[3,4-b]pyridine]	0.001 µM	0.022 µM
Fc1ccc(-c2nn3c(c2-c2ccnc4[nH]ccc24)CCC3)nc1 [Example 6, 4-(2-(5-Fluoropyridin-2-yl)-5,6-dihydro-4H-pyrrolo[1,2-b]pyrazol-3-yl)-1H-pyrrolo[2,3-b]pyridine]	0.001 µM	0.035 µM
Fc1ccc(-c2nn3c(c2-c2ccnc4[nH]ncc24)CCC3)nc1 [Example 7, 4-[2-(5-Fluoro-2-pyridyl)-5,6-dihydro-4H-pyrrolo[1,2-b]pyrazol-3-yl]-1H-pyrazolo[3,4-b]pyridine]	0.007 µM	0.136 µM
Cc1cc(-c2c(-c3ccc(F)cn3)nn3c2CCC3)c2cn[nH]c2n1 [Example 8, 4-[2-(5-Fluoro-2-pyridyl)-5,6-dihydro-4H-pyrrolo[1,2-b]pyrazol-3-yl]-6-methyl-1H-pyrazolo[3,4-b]pyridine]	0.004 µM	0.087 µM
Cc1nc2[nH]ncc2c(-c2c(-c3ccc(F)cn3)nn3c2CCC3)c1F [Example 9, 5-Fluoro-4-(2-(5-fluoropyridin-2-yl)-5,6-dihydro-4H-pyrrolo[1,2-b]pyrazol-3-yl)-6-methyl-1H-pyrazolo[3,4-b]pyridine]	0.012 µM	0.06 µM
Nc1cc(-c2c(-c3ccc(F)cc3)nn3c2C[C@H](F)C3)ccn1 [Example 10, (S)-4-(5-Fluoro-2-(4-fluorophenyl)-5,6-dihydro-4H-pyrrolo[1,2-b]pyrazol-3-yl)pyridin-2-amine]	0.001 µM	0.014 µM
Fc1ccc(-c2nn3c(c2-c2ccnc4[nH]ncc24)C[C@H](F)C3)cc1 [Example 11, (S)-4-(5-Fluoro-2-(4-fluorophenyl)-5,6-dihydro-4H-pyrrolo[1,2-b]pyrazol-3-yl)-1H-pyrazolo[3,4-b]pyridine]	0.001 µM	0.004 µM
Cc1cc(-c2c(-c3ccc(F)cc3)nn3c2C[C@H](F)C3)c2cn[nH]c2n1 [Example 12, (S)-4-(5-Fluoro-2-(4-fluorophenyl)-5,6-dihydro-4H-pyrrolo[1,2-b]pyrazol-3-yl)-6-methyl-1H-pyrazolo[3,4-b]pyridine]	0.001 µM	0.002 µM
Cc1cc(-c2c(-c3ccc(F)cn3)nn3c2CC(F)C3)c2cn[nH]c2n1 (stereo not shown) [Example 13, 4-(5-Fluoro-2-(5-fluoropyridin-2-yl)-5,6-dihydro-4H-pyrrolo[1,2-b]pyrazol-3-yl)-6-methyl-1H-pyrazolo[3,4-b]pyridine]	0.029 µM	0.671 µM
Fc1ccc(-c2nn3c(c2-c2ccnc4[nH]ncc24)C(F)(F)CC3)nc1 [Example 14, 4-(4,4-Difluoro-2-(5-fluoropyridin-2-yl)-5,6-dihydro-4H-pyrrolo[1,2-b]pyrazol-3-yl)-1H-pyrazolo[3,4-b]pyridine]	0.027 µM	0.293 µM
C[C@H]1CCc2c(-c3ccnc4[nH]ncc34)c(-c3ccc(F)cc3)nn21 [Example 15, 4-[(6S)-2-(4-Fluorophenyl)-6-methyl-5,6-dihydro-4H-pyrrolo[1,2-b]pyrazol-3-yl]-1H-pyrazolo[3,4-b]pyridine]	0.001 µM	0.012 µM
C[C@@H]1CCc2c(-c3ccnc4[nH]ncc34)c(-c3ccc(F)cc3)nn21 [Example 16, 4-[(6R)-2-(4-Fluorophenyl)-6-methyl-5,6-dihydro-4H-pyrrolo[1,2-b]pyrazol-3-yl]-1H-pyrazolo[3,4-b]pyridine]	0.004 µM	0.051 µM
Cc1cc(-c2c(-c3ccc(F)cc3)nn3c2CC[C@@H]3C)c2cn[nH]c2n1 [Example 17, 4-[(6S)-2-(4-Fluorophenyl)-6-methyl-5,6-dihydro-4H-pyrrolo[1,2-b]pyrazol-3-yl]-6-methyl-1H-pyrazolo[3,4-b]pyridine]	0.001 µM	0.012 µM
Cc1cc(-c2c(-c3ccc(F)cc3)nn3c2CC[C@H]3C)c2cn[nH]c2n1 [Example 18, 4-[(6R)-2-(4-Fluorophenyl)-6-methyl-5,6-dihydro-4H-pyrrolo[1,2-b]pyrazol-3-yl]-6-methyl-1H-pyrazolo[3,4-b]pyridine]	0.002 µM	0.019 µM
C[C@H]1CCc2c(-c3ccnc4[nH]ncc34)c(-c3ccc(F)cn3)nn21 [Example 19, 4-[(6S)-2-(5-Fluoro-2-pyridyl)-6-methyl-5,6-dihydro-4H-pyrrolo[1,2-b]pyrazol-3-yl]-1H-pyrazolo[3,4-b]pyridine]	0.008 µM	0.192 µM
C[C@@H]1CCc2c(-c3ccnc4[nH]ncc34)c(-c3ccc(F)cn3)nn21 [Example 20, 4-[(6R)-2-(5-Fluoro-2-pyridyl)-6-methyl-5,6-dihydro-4H-pyrrolo[1,2-b]pyrazol-3-yl]-1H-pyrazolo[3,4-b]pyridine]	0.02 µM	0.411 µM
Cc1cc(-c2c(-c3ccc(F)cn3)nn3c2CC[C@H]3C)c2cn[nH]c2n1 [Example 21, 4-[(6R)-2-(5-Fluoro-2-pyridyl)-6-methyl-5,6-dihydro-4H-pyrrolo[1,2-b]pyrazol-3-yl]-6-methyl-1H-pyrazolo[3,4-b]pyridine]	0.014 µM	0.353 µM
COc1ccc2nccc(-c3c(-c4ccc(F)cn4)nn4c3CC[C@@H]4C)c2n1 [Example 22, 8-[(6S)-2-(5-Fluoro-2-pyridyl)-6-methyl-5,6-dihydro-4H-pyrrolo[1,2-b]pyrazol-3-yl]-2-methoxy-1,5-naphthyridine]	0.023 µM	0.345 µM
Fc1ccc(-c2nn3c(c2-c2ccnc4[nH]ncc24)C[C@H]2C[C@H]23)nc1 [Example 25, (4aR,5aR)-2-(5-Fluoropyridin-2-yl)-3-(1H-pyrazolo[3,4-b]pyridin-4-yl)-4,4a,5,5a-tetrahydrocyclopropa[4,5]pyrrolo[1,2-b]pyrazole]	0.049 µM	0.672 µM
Fc1ccc(-c2nn3c(c2-c2ccnc4[nH]ncc24)C[C@@H]2C[C@@H]23)nc1 [Example 26, (4aS,5aS)-2-(5-Fluoropyridin-2-yl)-3-(1H-pyrazolo[3,4-b]pyridin-4-yl)-4,4a,5,5a-tetrahydrocyclopropa[4,5]pyrrolo[1,2-b]pyrazole]	0.004 µM	0.032 µM
Cc1cc(-c2c(-c3ccc(F)cn3)nn3c2C[C@H]2C[C@H]23)c2cn[nH]c2n1 [Example 27, (4aR,5aR)-2-(5-Fluoropyridin-2-yl)-3-(6-methyl-1H-pyrazolo[3,4-b]pyridin-4-yl)-4,4a,5,5a-tetrahydrocyclopropa[4,5]pyrrolo[1,2-b]pyrazole]	0.041 µM	0.434 µM
Cc1cc(-c2c(-c3ccc(F)cn3)nn3c2C[C@@H]2C[C@@H]23)c2cn[nH]c2n1 [Example 28, (4aS,5aS)-2-(5-Fluoropyridin-2-yl)-3-(6-methyl-1H-pyrazolo[3,4-b]pyridin-4-yl)-4,4a,5,5a-tetrahydrocyclopropa[4,5]pyrrolo[1,2-b]pyrazole]	0.002 µM	0.019 µM
c1csc(-c2nn3c(c2-c2ccnc4[nH]ncc24)CCCC3)n1 [Example 29, 2-(3-(1H-Pyrazolo[3,4-b]pyridin-4-yl)-4,5,6,7-tetrahydropyrazolo[1,5-a]pyridin-2-yl)thiazole]	0.035 µM	1.2 µM
